Source: patent EP0519427A2, “N-substituted-3-iodopropiolamide, production and use thereof” (priority 1991, dated 1992)

What was measured:
[1] = system: Coriolus versicolor(L. ex Fr.) Quélet, FFPRI 1030; assay: Preserving activity for wood preservatives (weight loss of treated wood); type: cell-based; settings: beech sapwood specimens, 110 ± 10 g/m² preservative applied (0.5% xylene solution per table note), eight weeks at 26 ± 2 °C; lower = higher preserving activity
Method: (§1) This test was conducted according to Specification No.1 of Japan Wood Preserving Association, enacted in 1979, amended in 1989 and titled "Test methods of preserving activity for wood preservatives used in the coating, spraying and dipping treatment".
(§2) • ① Tyromyces palustris (Ber. et Curt.) Murr., FFPRI 0507 --"Ouzuratake" • ② Coriolus versicolor(L. ex Fr.) Quélet, FFPRI 1030 --"Kawaratake"
(§3) These two fungi are classified as wood rot fungi.
(§4) Culture media comprised culture jars (cylindrical jars of bottom diameter 8-9 cm, opening diameter 6-7 cm and height 15-18 cm), in which quartz sand of 250 g (the size of which corresponds to 20-30 mesh) was put first, and then the solution of 70 ml containing 2.0 % malt extracts and 1.0 % peptone was introduced, over which chips of the beech or other broadleaf tree were spread at about 2 mm thickness, and then sterilized at 120 °C for 30 minutes in the wet heated sterilizer.
(§5) Fungi were cultured at 26 ± 2 °C with shaking using the culture solution of 2.0 % malt extracts and 1.0 % peptone. After sufficient breeding was obtained, the fungi solution of about 3 ml was spread all over the culture medium, and then the fungi were cultured at 26 ± 2 °C with the relative humidity of over 70 %. After 10-15 days when the fungi layer sufficiently covered the culture medium, the fungi were served for the tests.
(§6) Wood specimens were the sapwood of intact cedar and beech, the dimension of which was 5 mm thick, 20 mm wide and 40 mm long. The grain face was of 20 mm width and 40 mm length. The side faces were treated with cold-setting epoxy resin.
(§7) The antimicrobial operation was performed with specifying types of fungi for corresponding type of trees. The combinations were as follows: Cedar----Tyromyces palustris ("Ouzuratake") Beech----Coriolus versicolor ("Kawaratake")
(§8) The test specimens were of two types, treated and untreated specimens, respectively.
(§9) The treated specimens referred to the wood specimens coated by brushing, spraying or dipping with wood preservatives. The amount of applied preservatives was 110 ± 10 g/m².
(§10) The amount of applied preservatives for each test specimen was calculated by the following equation:
(§11) The amount of applied preservatives (g/m²)=(W₁-W₂)/A wherein W₁ : weight of the test specimen after absorption(g), W₂ : weight of the test specimen before absorption(g) and A: surface area of test specimen except both butt surfaces (m²)
(§12) 2-7-1 The test specimens prepared in the previous section were dried at 60 ± 2 °C with a recirculating dryer for 48 hours, and were allowed to stand in a desiccator for about 30 minutes, and then the weight (W₃) was measured to an accuracy of 0.01 g.
(§13) 2-7-2 Three of each treated and untreated specimens were assembled in the Teflon casing. After sterilizing, the two assemblies were put on their 40 × 5 mm face on the fungi layer in the separate jar. They were kept at 26 ± 2 °C under the relative humidity of over 70 % for eight weeks.
(§14) 2-7-3 After the eight weeks had elapsed, the test specimens were taken out, and mycelia and other attachments of them were removed neatly. After air-drying for 24 hours, the test specimens were dried at 60 ± 2 °C in a recirculating dryer for 48 hours, and were allowed to stand in a desiccator for about 30 minutes, and then the weight (W₄) was measured to an accuracy of 0.01 g.
(§15) The test results were presented by the ratio of average weight loss of test specimens due to antimicrobial operation. The standard deviation and coefficient of variation were also determined. The ratio of weight loss for each test specimen was calculated by the following equation, and its average was also determined: The ratio of weight loss(%) = (W₃ - W₄) / W₃ × 100 [formula] . Lower value of the ratio of weight loss corresponds to higher wood preserving activity. […]

[2] = system: Tyromyces palustris (Ber. et Curt.) Murr., FFPRI 0507; assay: as above; type: cell-based; settings: cedar sapwood specimens, 110 ± 10 g/m² preservative applied (0.5% xylene solution per table note), eight weeks at 26 ± 2 °C; lower = higher preserving activity
Method: as §1, §2, §3, §4, §5, §6, §7, §8, §9, §10, §11, §12, §13, §14, §15

Compound | Ratio of weight loss (%), C. versicolor [1] [%] | Ratio of weight loss (%), T. palustris [2] [%]
CC(C)(C)NC(=O)C#CI [Example 1, N-(tert-Butyl)-3-iodopropiolamide] | 11.9 | 2.4
CCCCCCCCCCNC(=O)C#CI [Example 2, N-(n-Decyl)-3-iodopropiolamide] | 15.9 | 0.2
CCCCNC(=O)C#CI [Example 4, N-(n-Butyl)-3-iodopropiolamide] | 1.6 | 0.0
CCC(C)NC(=O)C#CI (centres unmarked) [Example 5, N-(sec-Butyl)-3-iodopropiolamide] | 7.2 | 2.5
CC(C)CNC(=O)C#CI [Example 6, N-Isobutyl-3-iodopropiolamide] | 1.5 | 0.0
CCCCCNC(=O)C#CI [Example 7, N-(n-Pentyl)-3-iodopropiolamide] | 3.1 | 2.2
CCCCCCNC(=O)C#CI [Example 8, N-(n-Hexyl)-3-iodopropiolamide] | 1.7 | 1.3
CCCCCCCNC(=O)C#CI [Example 9, N-(n-Heptyl)-3-iodopropiolamide] | 12.0 | 3.3
CCCCCCCCNC(=O)C#CI [Example 10, N-(n-Octyl)-3-iodopropiolamide] | 8.4 | 5.0
CCCCCCCCCNC(=O)C#CI [Example 11, N-(n-Nonyl)-3-iodopropiolamide] | 14.2 | 5.8
